Legend:
[1] = tested on: lactic acid bacteria strains efficiently using tagatose; assay: Growth curves of lactic acid bacteria on other prebiotics (Example 3); type: cell-based; conditions: 9 strains, 37° C., live cell count at 0, 5, 10, 24 and 48 hours
Method: Capacity of using other prebiotics except for tagatose was evaluated, compared and analyzed using 9 strains having excellent capacity of using tagatose among the 19 strains identified in Example 2.
For the present evaluation, at the time of preparing the medium used in Example 1, as a positive control group, glucose was used except for tagatose, and as negative control groups, fructooligosaccharide, lactitol, lactulose, and xylitol were used.
Each of the Lactobacillus casei (FIG. 1), Lactobacillus casei Shirota (FIG. 2), Lactobacillus casei DN114001 (FIG. 3), Lactobacillus casei-01® (FIG. 4), Lactobacillus rhamnosus (FIG. 5), Lactobacillus rhamnosus GG (FIG. 6), Pediococcus pentosaceus (FIG. 7), Lactobacillus farciminis (FIG. 8), and Lactobacillus acidophilus (FIG. 9) that were identified in Example 2 was inoculated in each of the media and cultured at 37° C. for 0, 5, 10, 24, and 48 hours. Then, a live cell count thereof was measured, such that a growth curve of each of the strains was obtained.

L. casei DN114001 = assay: Capacity of using tagatose: live cell count after culture in minimal medium with added sugar; type: cell-based, Lactobacillus casei
Method: (§1) Pure culture solutions (1% culture solution in a stationary-phase in which a cell count of each of the strains is about 10^8 to 10^9 cfu/ml) of a total of 385 lactic acid bacteria strains were inoculated in selective media, respectively, and cultured in an incubator at 37° C. for 18 hours, followed by sub-culturing three times. Then, experiments proceeded at a state in which viability of the strain was optimal.
(§2) In order to evaluate the capacity of using tagatose of each of the lactic acid bacteria, a minimal medium composed of 5 g of peptone, 2.5 g of sodium acetate trihydrate, 0.5 ml of magnesium sulfate heptahydrate, 0.5 ml of manganese sulfate tetrahydrate, 5 ml of Tween 80, 1 g of diammonium citrate, 1 g of dipotassium phosphate, and 480 ml of distilled water was used.
(§3) After the medium was sterilized at 121° C. for 15 minutes and divided into three samples, 20 ml of 50% tagatose solution, 20 ml of 50% glucose solution, and 20 ml of 50% fructooligosaccharide solution (FOS) were added to each of the three samples, thereby preparing liquid media.
(§4) 1% of each of the lactic acid bacteria strains cultured as described above was inoculated in the prepared medium and cultured in an incubator at 37° C. for 24 hours. Thereafter, absorbance of each of the cultured strains was measured using an ELISA reader, and a cell count was measured through plate culture using a dilution solution, thereby evaluating the capacity of using tagatose.

L. casei Shirota = assay: as above; type: cell-based, Lactobacillus casei
Method: as §1, §2, §3, §4

L. casei-01® = assay: as above; type: cell-based, Lactobacillus casei
Method: as §1, §2, §3, §4

L. casei = assay: as above; type: cell-based, Lactobacillus casei; conditions: for Log10 Value of Live Cell Count: 24h, 37° C., minimal medium with the named sugar; for Tagatose/Glucose: ratio of 24h log10 live cell counts
Method: as §1, §2, §3, §4

L. rhamnosus GG = assay: as above; type: cell-based, Lactobacillus rhamnosus; conditions: for Log10 Value of Live Cell Count: 24h, 37° C., minimal medium with the named sugar; for Tagatose/Glucose: ratio of 24h log10 live cell counts
Method: as §1, §2, §3, §4

L. rhamnosus = assay: as above; type: cell-based, Lactobacillus rhamnosus; conditions: for Log10 Value of Live Cell Count: 24h, 37° C., minimal medium with the named sugar; for Tagatose/Glucose: ratio of 24h log10 live cell counts
Method: as §1, §2, §3, §4

P. pentosaceus = assay: as above; type: cell-based, Pediococcus pentosaceus; conditions: for Log10 Value of Live Cell Count: 24h, 37° C., minimal medium with the named sugar; for Tagatose/Glucose: ratio of 24h log10 live cell counts
Method: as §1, §2, §3, §4

L. farciminis = assay: as above; type: cell-based, Lactobacillus farciminis; conditions: strain 18 (L. farciminis)
Method: as §1
as §2, with “used. […]” for “used.”
as §4

L. acidophilus = assay: as above; type: cell-based, Lactobacillus acidophilus; conditions: strain 19 (L. acidophilus)
Method: as §1
as §2, with “used. […]” for “used.”
as §4

[2] = 24h, 37° C., minimal medium with the named sugar
[3] = ratio of 24h log10 live cell counts

Compound: OC[C@@H](O)[C@@H](O[C@@H]1O[C@H](CO)[C@H](O)[C@H](O)[C@H]1O)[C@H](O)[C@@H](O)CO [lactitol]
- capacity of using the sugar (comparison of growth curves) [1]: low

Compound: O=C(CO)[C@@H](O)[C@@H](O)[C@H](O)CO [Tagatose, tagatose]
- capacity of using tagatose (L. casei DN114001; L. casei DN114001, as compared to the other strains of Table 1): significantly excellent capacity of using tagatose
- Log10 Value of Live Cell Count (L. casei DN114001; strain 8 (L. casei DN114001), 24h, 37° C., minimal medium with the named sugar): 8.953
- Tagatose/Glucose (L. casei DN114001; strain 8 (L. casei DN114001), ratio of 24h log10 live cell counts): 101.7%
- capacity of using tagatose (L. casei Shirota; L. casei Shirota, as compared to the other strains of Table 1): significantly excellent capacity of using tagatose
- Log10 Value of Live Cell Count (L. casei Shirota; strain 7 (L. casei Shirota), 24h, 37° C., minimal medium with the named sugar): 9.054
- Tagatose/Glucose (L. casei Shirota; strain 7 (L. casei Shirota), ratio of 24h log10 live cell counts): 101.4%
- capacity of using tagatose (L. casei-01®; L. casei-01, as compared to the other strains of Table 1): significantly excellent capacity of using tagatose
- Log10 Value of Live Cell Count (L. casei-01®; strain 9 (L. casei-01®), 24h, 37° C., minimal medium with the named sugar): 9.068
- Tagatose/Glucose (L. casei-01®; strain 9 (L. casei-01®), ratio of 24h log10 live cell counts): 101.4%
- Log10 Value of Live Cell Count (L. casei; strain 1 (L. casei)): 7.882
- Tagatose/Glucose (L. casei; strain 1 (L. casei)): 100.3%
- Log10 Value of Live Cell Count (L. casei; strain 2 (L. casei)): 8.137
- Tagatose/Glucose (L. casei; strain 2 (L. casei)): 100.1%
- Log10 Value of Live Cell Count (L. casei; strain 3 (L. casei)): 8.240
- Tagatose/Glucose (L. casei; strain 3 (L. casei)): 99.6%
- Log10 Value of Live Cell Count (L. casei; strain 4 (L. casei)): 8.424
- Tagatose/Glucose (L. casei; strain 4 (L. casei)): 99.0%
- Log10 Value of Live Cell Count (L. casei; strain 5 (L. casei)): 8.449
- Tagatose/Glucose (L. casei; strain 5 (L. casei)): 93.1%
- Log10 Value of Live Cell Count (L. casei; strain 6 (L. casei)): 8.767
- Tagatose/Glucose (L. casei; strain 6 (L. casei)): 98.8%
- capacity of using tagatose (L. rhamnosus GG; L. rhamnosus GG, as compared to the other strains of Table 1): significantly excellent capacity of using tagatose
- Log10 Value of Live Cell Count (L. rhamnosus GG; strain 14 (L. rhamnosus GG)): 8.548
- Tagatose/Glucose (L. rhamnosus GG; strain 14 (L. rhamnosus GG)): 105.0%
- Log10 Value of Live Cell Count (L. rhamnosus GG; strain 15 (L. rhamnosus GG)): 8.822
- Tagatose/Glucose (L. rhamnosus GG; strain 15 (L. rhamnosus GG)): 103.5%
- Log10 Value of Live Cell Count (L. rhamnosus; strain 10 (L. rhamnosus)): 7.939
- Tagatose/Glucose (L. rhamnosus; strain 10 (L. rhamnosus)): 98.5%
- Log10 Value of Live Cell Count (L. rhamnosus; strain 11 (L. rhamnosus)): 8.031
- Tagatose/Glucose (L. rhamnosus; strain 11 (L. rhamnosus)): 99.2%
- Log10 Value of Live Cell Count (L. rhamnosus; strain 12 (L. rhamnosus)): 8.059
- Tagatose/Glucose (L. rhamnosus; strain 12 (L. rhamnosus)): 98.5%
- Log10 Value of Live Cell Count (L. rhamnosus; strain 13 (L. rhamnosus)): 8.169
- Tagatose/Glucose (L. rhamnosus; strain 13 (L. rhamnosus)): 99.5%
- Log10 Value of Live Cell Count (P. pentosaceus; strain 16 (P. pentosaceus)): 8.798
- Tagatose/Glucose (P. pentosaceus; strain 16 (P. pentosaceus)): 99.1%
- Log10 Value of Live Cell Count (P. pentosaceus; strain 17 (P. pentosaceus)): 8.953
- Tagatose/Glucose (P. pentosaceus; strain 17 (P. pentosaceus)): 98.8%
- Log10 Value of Live Cell Count (L. farciminis; [2]): 8.601
- Tagatose/Glucose (L. farciminis; [3]): 99.2%
- Log10 Value of Live Cell Count (L. acidophilus; [2]): 7.913
- Tagatose/Glucose (L. acidophilus; [3]): 98.4%

Source: patent US20150050388A1, “SYNBIOTIC FOOD COMPOSITION CONTAINING TAGATOSE AND PROBIOTIC LACTIC ACID BACTERIA” (CJ CHEILJEDANG CORPORATION, priority 2012, published 2015)
